Data: article PMC11651181, “Discovery of 6α-Thiazolylcarboxamidonaltrexamine Derivative (NTZ) as a Potent and Central Nervous System Penetrant Opioid Receptor Modulator with Drug-like Properties for Potential Treatment of Opioid Use Disorder” (ACS Pharmacology & Translational Science, 2024)
Where a name gives a salt, the structure may show the parent alone.

Experiments:
[1] = tested on: morphine-pelleted mice; assay: In vivo opioid withdrawal studies in morphine-pelleted mice; set-up: species or system mouse
Experimental: Swiss Webster mice (six males per group, weighing 25–35 g and aged 6–8 weeks) were used. Following a previously established protocol,[20] a 75 mg morphine pellet was implanted subcutaneously into the back of each mouse, and they were allowed to recover in their home cages. Prior to testing, the mice were habituated for 30 min in an open-topped, clear Plexiglas observation chamber (26 × 26 × 26 cm^3) with lines marking the floor into quadrants. […]. Withdrawal symptoms began within 3 min of antagonist administration. Escape jumps, paw tremors, and wet dog shakes were recorded by counting their occurrences over a 20 min period for each mouse. Results are expressed as the mean ± SEM.

[2] = Plasma protein binding, human; format: in vitro ADME
Experimental: (§1) The ADMET assessment including the hERG inhibitory activity, plasma protein binding, in vitro metabolic stability profile, CYP inhibitory effect and mutagenic evaluation were conducted by Eurofins Panlabs, Inc.[21],[61],[69]−[71]

[3] = target: T1, CYP2A6 (Homo sapiens, UniProt P11509); assay: Cytochrome P450 inhibition assay, CYP2A6; format: in vitro ADME
T1 construct: Eurofins Panlabs, Inc. (contract laboratory)
T1 sequence (P11509 1-494): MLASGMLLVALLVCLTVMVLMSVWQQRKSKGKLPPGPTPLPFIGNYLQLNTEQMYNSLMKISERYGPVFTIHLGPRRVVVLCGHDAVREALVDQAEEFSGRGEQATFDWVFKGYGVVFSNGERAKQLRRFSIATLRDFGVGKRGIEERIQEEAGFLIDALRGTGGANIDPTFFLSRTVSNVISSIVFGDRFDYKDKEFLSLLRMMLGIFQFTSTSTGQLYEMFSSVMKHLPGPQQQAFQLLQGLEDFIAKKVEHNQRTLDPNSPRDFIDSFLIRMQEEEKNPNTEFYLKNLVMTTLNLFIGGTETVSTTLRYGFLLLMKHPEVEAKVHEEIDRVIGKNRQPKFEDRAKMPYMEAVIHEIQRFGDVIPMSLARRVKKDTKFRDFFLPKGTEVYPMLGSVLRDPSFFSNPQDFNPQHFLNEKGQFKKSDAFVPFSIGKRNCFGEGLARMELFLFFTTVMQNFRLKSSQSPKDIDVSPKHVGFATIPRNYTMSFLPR
Experimental: as §1

[4] = 5 mg/kg s.c., counted over 20 min

O=C(N[C@H]1CC[C@@]2(O)[C@H]3Cc4ccc(O)c5c4[C@@]2(CCN3CC2CC2)[C@H]1O5)c1nccs1 [Compound 6, 17-Cyclopropylmethyl-3,14β-dihydroxy-4,5α-epoxy-6α-(2′-thiazolylcarboxamido)-morphinan hydrochloride]
Jumps, mean count [1, 4]: 36.8
Paw tremors, mean count [1, 4]: 30.2
Wet dog shake, mean count [1, 4]: 9.8
Precipitated withdrawal symptoms, in words ([1]; s.c.): fewer wet dog shakes and paw tremors at all testing doses than 1 mg/kg NLX
fraction unbound [2]: 0.56
inhibition at 10 µM ([3]; 1.0E-05 M): 7.8%
inhibition at 100 nM ([3]; 1.0E-07 M): 6.3%
